In one assay the target is TEAD1 (Homo sapiens (Human), UniProt P28347). As to the kind of experiment: TR-FRET lipid pocket probe competition assay (Lipid HTRF), TEAD1.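 Further: His-tagged TEAD1 with biotinylated probe, detected via Europium anti-His and XL665 streptavidin, probe displacement lowers TR-FRET signal, IC50 from four-parameter nonlinear fit.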 The format is binding. Particulars: 4 hours pre-incubation; read-out: Lipid HTRF TEAD1 IC50.
A further assay concerns the target TEAD3 (Homo sapiens (Human), UniProt Q99594). Description: TR-FRET lipid pocket probe competition assay (Lipid HTRF), TEAD3. The format is binding. Particulars: 4 hours pre-incubation; read-out: Lipid HTRF TEAD3 IC50. In general terms: In TR-FRET formats the signal depends on donor and acceptor labels being close together.
The next assay has as its target TEAD4 (Homo sapiens (Human), UniProt Q15561). Description: TR-FRET lipid pocket probe competition assay (Lipid HTRF), TEAD4.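 Further: His-tagged TEAD4 with biotinylated lipid-pocket probe, read by Europium anti-His and XL665 streptavidin, where probe displacement lowers the TR-FRET signal, IC50 from a four-parameter fit.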 The class given is binding. Particulars: 4 hours pre-incubation; read-out: Lipid HTRF TEAD4 IC50.
For a further assay, the target named is TEAD2 (Homo sapiens (Human), UniProt Q15562).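 Further: TR-FRET competition assay with His-tagged TEAD protein and a biotinylated lipid pocket probe, compound pre-incubated 30 min or 4 h at room temperature, displacement lowers signal.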
Sequence of TEAD2 (Q15562 whole entry, species assumed): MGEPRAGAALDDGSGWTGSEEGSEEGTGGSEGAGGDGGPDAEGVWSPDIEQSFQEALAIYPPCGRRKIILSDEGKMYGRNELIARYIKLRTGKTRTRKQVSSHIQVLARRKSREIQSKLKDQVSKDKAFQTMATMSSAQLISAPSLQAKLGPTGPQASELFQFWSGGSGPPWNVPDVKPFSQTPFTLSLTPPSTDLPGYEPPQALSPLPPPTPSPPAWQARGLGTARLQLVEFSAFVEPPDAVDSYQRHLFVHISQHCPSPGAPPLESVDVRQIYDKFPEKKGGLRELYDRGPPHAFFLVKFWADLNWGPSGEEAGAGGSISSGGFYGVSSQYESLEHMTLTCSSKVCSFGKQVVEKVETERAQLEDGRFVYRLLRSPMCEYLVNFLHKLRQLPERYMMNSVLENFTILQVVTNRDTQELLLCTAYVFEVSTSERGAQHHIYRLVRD

Sequence of TEAD1 (P28347 whole entry, species assumed): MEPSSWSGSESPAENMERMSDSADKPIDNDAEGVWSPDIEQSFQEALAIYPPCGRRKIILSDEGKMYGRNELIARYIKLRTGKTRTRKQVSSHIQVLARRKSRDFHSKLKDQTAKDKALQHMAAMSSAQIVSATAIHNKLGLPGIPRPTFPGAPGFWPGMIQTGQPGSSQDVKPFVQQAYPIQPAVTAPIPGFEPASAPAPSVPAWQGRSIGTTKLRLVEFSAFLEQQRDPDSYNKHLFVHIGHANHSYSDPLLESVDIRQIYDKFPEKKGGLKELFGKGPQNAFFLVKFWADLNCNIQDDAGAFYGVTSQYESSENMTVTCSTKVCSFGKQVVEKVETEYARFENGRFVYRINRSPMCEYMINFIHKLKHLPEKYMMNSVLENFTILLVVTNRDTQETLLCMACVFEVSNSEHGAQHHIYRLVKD
Sequence of TEAD3 (Q99594 whole entry, species assumed): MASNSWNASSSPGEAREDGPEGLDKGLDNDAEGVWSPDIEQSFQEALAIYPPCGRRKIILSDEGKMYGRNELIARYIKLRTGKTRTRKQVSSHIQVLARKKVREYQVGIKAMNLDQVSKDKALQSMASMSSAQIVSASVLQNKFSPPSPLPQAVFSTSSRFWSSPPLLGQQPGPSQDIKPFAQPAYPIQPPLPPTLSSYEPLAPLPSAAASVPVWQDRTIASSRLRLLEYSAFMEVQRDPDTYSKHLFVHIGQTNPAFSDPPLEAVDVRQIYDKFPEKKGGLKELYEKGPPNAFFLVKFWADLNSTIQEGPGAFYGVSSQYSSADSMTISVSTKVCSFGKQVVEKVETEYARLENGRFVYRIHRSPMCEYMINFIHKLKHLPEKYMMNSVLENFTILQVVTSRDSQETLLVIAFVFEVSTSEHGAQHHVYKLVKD
Sequence of TEAD4 (Q15561 whole entry, species assumed): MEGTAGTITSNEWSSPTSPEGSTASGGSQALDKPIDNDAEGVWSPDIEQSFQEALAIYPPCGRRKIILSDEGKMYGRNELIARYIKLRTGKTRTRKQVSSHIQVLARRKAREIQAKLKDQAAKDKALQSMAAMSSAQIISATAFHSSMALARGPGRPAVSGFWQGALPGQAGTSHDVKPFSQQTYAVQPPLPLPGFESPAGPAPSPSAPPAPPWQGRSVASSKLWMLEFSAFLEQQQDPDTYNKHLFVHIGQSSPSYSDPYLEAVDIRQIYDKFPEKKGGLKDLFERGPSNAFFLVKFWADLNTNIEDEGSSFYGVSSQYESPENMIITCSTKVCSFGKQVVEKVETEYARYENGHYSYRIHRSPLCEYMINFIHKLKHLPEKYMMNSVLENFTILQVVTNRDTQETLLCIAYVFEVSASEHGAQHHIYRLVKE
Protocol for TEAD3: (§1) His-tagged TEAD proteins are pre-incubated with TEAD project compounds for 30 minutes or 4 hours at room temperature. Biotinylated lipid pocket probes are then added to the TEAD/Compound mixture and incubated for 60 minutes at room temperature. The lipid pocket probe competes with the test compound for the TEAD lipid pocket until equilibrium is reached. After 60 minutes, Europium labelled anti-His (Perkin Elmer #AD0110) and XL665 labelled streptavidin (CIS Bio 610SAXAC) are added to the TEAD/test compound/lipid pocket mixture and incubated for 30 minutes or 4 hours. […] If a TEAD lipid pocket binder such as binds and displaces the lipid pocket probe, the disruption of the TEAD:probe interaction results in a decrease in TR-FRET signal. The potency of compounds as TEAD lipid pocket binders is determined by IC50 value generated using a non-linear 4 parameter curve fit.
Protocol for TEAD4: as §1

Consider `O=C(NCc1nn(-c2ccc(OC(F)(F)F)cc2)c2nccc([C@H](O)CO)c12)C1=CCC1` [Compound 156, (S)-N-((4-(1,2-Dihydroxyethyl)-1-(4-(trifluoromethoxy)phenyl)-1H-pyrazolo[3,4-b]pyridin-3-yl)methyl)cyclobut-1-enecarboxamide], for which the IC50 (as a rule, the midpoint of a concentration-inhibition curve) on TEAD1 came to 33 nM; at TEAD3, 740 nM; on TEAD4, 7.8 nM; against TEAD2 it was 25 nM.
As to `C=C(F)C(=O)N1CC(c2nn(-c3ccc(OC(F)(F)F)cc3)c3nccc(-c4cnn(C)c4)c23)C1` [Compound 158, 2-Fluoro-1-(3-(4-(1-methyl-1H-pyrazol-4-yl)-1-(4-(trifluoromethoxy)phenyl)-1H-pyrazolo[3,4-b]pyridin-3-yl)azetidin-1-yl)prop-2-en-1-one], the half-inhibitory concentration (IC50) is 51 nM on TEAD1, 4300 nM on TEAD3, 64 nM on TEAD4 and 690 nM against TEAD2.
Turning to `C=C(C)S(=O)(=O)N1CC(c2nn(-c3ccc(OC(F)(F)F)cc3)c3nccc([C@H](O)CO)c23)C1` [Compound 159, (S)-1-(3-(1-(Prop-1-en-2-ylsulfonyl)azetidin-3-yl)-1-(4-(trifluoromethoxy)phenyl)-1H-pyrazolo[3,4-b]pyridin-4-yl)ethane-1,2-diol], the IC50 at TEAD1 turned out to be 45 nM; on TEAD3, 240 nM; on TEAD4 it was 8.5 nM; against TEAD2, 5.7 nM.
Take `C=C(C)S(=O)(=O)N1CC(c2nn(-c3ccc(OC(F)(F)F)cc3)c3nccc([C@@H](O)CO)c23)C1` [Compound 160, (R)-1-(3-(1-(prop-1-en-2-ylsulfonyl)azetidin-3-yl)-1-(4-(trifluoromethoxy)phenyl)-1H-pyrazolo[3,4-b]pyridin-4-yl)ethane-1,2-diol]: the 50% inhibitory concentration (IC50) was found to be 76 nM at TEAD1, 1200 nM on TEAD3, 43 nM at TEAD4 and 15 nM at TEAD2.
As to `C=CC(=O)NCc1nn(-c2ccc(OC(F)(F)F)cc2)c2nccc(-c3cnn(C)c3)c12` [Compound 164, N-((4-(1-methyl-1H-pyrazol-4-yl)-1-(4-(trifluoromethoxy)phenyl)-1H-pyrazolo[3,4-b]pyridin-3-yl)methyl)acrylamide], the IC50 at TEAD1 was determined as 47.9 nM; on TEAD3 it was 2040 nM; at TEAD4, 32 nM; on TEAD2, 129 nM.
For `C=CC(=O)NCc1nn(-c2ccc(OC(F)(F)F)cc2)c2nccc(-c3cnn(CC(N)=O)c3)c12` [Compound 165, N-((4-(1-(2-amino-2-oxoethyl)-1H-pyrazol-4-yl)-1-(4-(trifluoromethoxy)phenyl)-1H-pyrazolo[3,4-b]pyridin-3-yl)methyl)acrylamide], the IC50 at TEAD1 is 120 nM; on TEAD3, 50000 nM; on TEAD4 it was 100 nM; against TEAD2, 40 nM.
Take `C=CC(=O)NCc1nn(-c2ccc(OC(F)(F)F)cc2)c2nccc(-c3cnn(CCOC)c3)c12` [Compound 167, N-[[4-[1-(2-methoxyethyl)pyrazol-4-yl]-1-[4-(trifluoromethoxy)phenyl]pyrazolo[3,4-b]pyridin-3-yl]methyl]prop-2-enamide]: the IC50 is 57 nM at TEAD1, 1700 nM on TEAD3, 35 nM at TEAD4 and 210 nM at TEAD2.
In the case of `C=CC(=O)NCc1nn(-c2ccc(OC(F)(F)F)cc2)c2nccc(-c3cnn(CCS(C)(=O)=O)c3)c12` [Compound 168, N-((4-(1-(2-(methylsulfonyl)ethyl)-1H-pyrazol-4-yl)-1-(4-(trifluoromethoxy)phenyl)-1H-pyrazolo[3,4-b]pyridin-3-yl)methyl)acrylamide], the half-inhibitory concentration (IC50) came to 140 nM on TEAD1, 50000 nM at TEAD3, 49 nM at TEAD4 and 1100 nM at TEAD2.
As for `C=CC(=O)NCc1nn(-c2ccc(OC(F)(F)F)cc2)c2nccc(-c3cnn(C(C)C)c3)c12` [Compound 170, N-[[4-(1-isopropylpyrazol-4-yl)-1-[4-(trifluoromethoxy)phenyl]pyrazolo[3,4-b]pyridin-3-yl]methyl]prop-2-enamide], the IC50 on TEAD1 worked out at 120 nM; on TEAD3 it was 26600 nM; on TEAD4, 92.8 nM; on TEAD2, 355 nM.
For the compound `C=CC(=O)NCc1nn(-c2ccc(OC(F)(F)F)cc2)c2nccc(-c3cnn(C4COC4)c3)c12` [Compound 171, N-[[4-[1-(oxetan-3-yl)pyrazol-4-yl]-1-[4-(trifluoromethoxy)phenyl]pyrazolo[3,4-b]pyridin-3-yl]methyl]prop-2-enamide], the IC50 on TEAD1 worked out at 60 nM; on TEAD3 it was 810 nM; at TEAD4, 29 nM; against TEAD2 it was 330 nM.
`C=CC(=O)NCc1nn(-c2ccc(OC(F)(F)F)cc2)c2nccc(-c3cnn(CCN(C)C)c3)c12` [Compound 172, N-[[4-[1-[2-(dimethylamino)ethyl]pyrazol-4-yl]-1-[4-(trifluoromethoxy)phenyl]pyrazolo[3,4-b]pyridin-3-yl]methyl]prop-2-enamide]: the 50% inhibitory concentration (IC50) at TEAD1 turned out to be 470 nM; on TEAD3, 19000 nM; on TEAD4 it was 150 nM; at TEAD2, 810 nM.
In the same order, the values of `C=CC(=O)NCc1nn(-c2ccc(OC(F)(F)F)cc2)c2nccc(-c3cnn(C4CC4)c3)c12` [Compound 173, N-((4-(1-cyclopropyl-1H-pyrazol-4-yl)-1-(4-(trifluoromethoxy)phenyl)-1H-pyrazolo[3,4-b]pyridin-3-yl)methyl)acrylamide] are 86 nM, 26200 nM, 52.5 nM and 382 nM.
As for `C=C(F)C(=O)N1CC(c2nn(-c3ccc(OC(F)(F)F)cc3)c3nccc(-c4cnn(C5COC5)c4)c23)C1` [Compound 175, 2-fluoro-1-(3-(4-(1-(oxetan-3-yl)-1H-pyrazol-4-yl)-1-(4-(trifluoromethoxy)phenyl)-1H-pyrazolo[3,4-b]pyridin-3-yl)azetidin-1-yl)prop-2-en-1-one], the IC50 on TEAD1 was 62 nM; on TEAD3, 50000 nM; at TEAD4, 45 nM; against TEAD2 it was 420 nM.
In the same order, the values of `C=C(F)C(=O)N1CC(c2nn(-c3ccc(OC(F)(F)F)cc3)c3nccc(-c4cnn(CCOC)c4)c23)C1` [Compound 176, 2-fluoro-1-(3-(4-(1-(2-methoxyethyl)-1H-pyrazol-4-yl)-1-(4-(trifluoromethoxy)phenyl)-1H-pyrazolo[3,4-b]pyridin-3-yl)azetidin-1-yl)prop-2-en-1-one] are 46 nM, 50000 nM, 77 nM and 800 nM.
The corresponding values for `C=C(F)C(=O)N1CC(c2nn(-c3ccc(OC(F)(F)F)cc3)c3nccc(-c4cnn(C5CC5)c4)c23)C1` [Compound 177, 1-(3-(4-(1-cyclopropyl-1H-pyrazol-4-yl)-1-(4-(trifluoromethoxy)phenyl)-1H-pyrazolo[3,4-b]pyridin-3-yl)azetidin-1-yl)-2-fluoroprop-2-en-1-one] are 86 nM, 50000 nM, 120 nM and 890 nM.

The values above are taken from US12110276B2 (Genentech, Inc., priority 2021, dated 2024).
